Reference: patent US20040254221A1, “Novel Nitrogenous Compound and use thereof” (priority 2001, published 2004)

Legend:
receptors CXCR4 = molecular target: T1, receptors CXCR4 (Homo sapiens, UniProt P61073); assay: Inhibition of 125I-SDF-1 binding to CXCR4 on MT4 cells; details: 125I-SDF-1 ligand, 2 hours under ice-cooling, read-out: Inhibition rate (binding-inhibition %)
T1 construct: endogenous in cells; host or cells: MT4 cells
Protocol: MT4 cells (5×10^6/0.2 ml/well) were cultured on a 24-well microtiter plate. After the cells were incubated for 24 hours at 37° C. in a carbon dioxide gas incubator, a culture medium was replaced with a buffer solution (0.1% BSA-containing RPMI-1640). Together with a ligand (^125I-SDF-1″, specific activity: 2,200 Ci/mmol; manufactured by Daiichi Chemicals Co., Ltd. (Tokyo)), test materials of various concentrations were subjected to a binding reaction for 2 hours under ice-cooling.

[1] = test system: HIV-1IIIB infected MT-4 cells; assay: Antiviral activity in HIV-1IIIB infected MT-4 cells (MTT method); assay type: cell-based; details: Human immunodeficiency virus 1, MT4, 120 h, MOI 0.01, MT-4 cells, 5 days, read-out: EC50 (concentration required for inhibition of cell disorder due to HIV infection by 50%)
Protocol: Immediately after infection, HIV-1IIIB infected MT-4 cells (3.0×10^4/well, MOI (Multiplicity of infection): 0.01) were added to a 96-well microtiter plate together with the test compounds having different concentrations. The cells were cultured in a carbon dioxide incubator at 37° C. for 5 days, and the number of living cells was measured in accordance with the MTT (tetrazolium) method ([…] et al., J. of Virol. Method, 20, 309-321 (1988)). The antiviral activity is represented the concentration required for inhibition of cell disorder due to HIV infection by 50% (EC50: 50% Effective Concentration), and expressed using μM, and the results are shown in Table 2.

ICR mice (male) = details: mouse, in vivo, 4 days
Protocol: The acute toxicity of the aforementioned compound was examined. Specifically, 7-week-old ICR mice (male) were divided into several groups (4 or 5 mice in each group), and the mice were bred for 1 week for habituation. Subsequently, each of the compounds of Examples was dissolved in distilled water or physiological saline, and the solution was administered to the mice via tail vein (dose: 15 mg/kg) twice a day for 4 days. On the fifth day, dead mice were counted.

T1 sequence (P61073 whole entry): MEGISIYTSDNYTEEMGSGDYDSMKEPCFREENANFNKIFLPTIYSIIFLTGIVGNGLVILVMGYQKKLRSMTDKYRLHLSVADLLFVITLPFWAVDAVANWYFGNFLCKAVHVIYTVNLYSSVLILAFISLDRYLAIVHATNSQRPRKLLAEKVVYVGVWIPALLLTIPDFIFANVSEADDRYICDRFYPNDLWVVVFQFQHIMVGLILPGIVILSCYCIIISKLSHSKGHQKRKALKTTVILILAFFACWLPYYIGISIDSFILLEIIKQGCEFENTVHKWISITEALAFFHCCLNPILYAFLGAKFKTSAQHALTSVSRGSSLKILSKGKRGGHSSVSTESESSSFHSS

SMILES	inhibition at 0.1 µM (receptors CXCR4) [%]	EC50 [1] [nM]	Dead mice/test mice (ICR mice (male))
C[C@H](NC(=O)[C@H](CCCSC(=N)N)NC(=O)c1ccc(CNCc2ccccn2)cc1)c1cccc2ccccc12 [Compound No. 73, N-[(S)-1-(1-naphthyl)ethyl]-5-sulfinamidino-2-(S)-[4-[N-(pyridin-2-ylmethyl)aminomethyl]benzoyl]aminopentanoylamide]	93.5	69.1	0/5
C[C@H](NC(=O)[C@H](CCCN(C)C1CCCCC1)NC(=O)c1ccc(CNCc2ncc[nH]2)cc1)c1cccc2ccccc12 [Compound No. 42, N-[(S)-1-(1-naphthyl)ethyl]-5-(N-methyl-cyclohexylamino)-2-(S)-[4-[N-(imidazol-2-ylmethyl)aminomethyl]benzoyl]aminopentanoylamide]		14.5	0/5
C/N=C(\N)SCCC[C@H](NC(=O)c1ccc(CNCc2ccccn2)cc1)C(=O)N[C@@H](C)c1cccc2ccccc12 [Compound No. 74, N-[(S)-1-(1-naphthyl)ethyl]-5-(N-methylsulfinamidino)-2-(S)-[4-[N-(pyridin-2-ylmethyl)aminomethyl]benzoyl]aminopentanoylamide]		46.1	0/5
CC(C)CN(CCC[C@H](NC(=O)c1ccc(CNCc2ncc[nH]2)cc1)C(=O)N[C@@H](C)c1cccc2ccccc12)CC(C)C [Compound No. 33, N-[(S)-1-(1-naphthyl)ethyl]-5-diisobutylamino-2-(S)-[4-[N-(imidazol-2-ylmethyl)aminomethyl]benzoyl]aminopentanoylamide]	100	6.7	0/5
CC(C)CN(CCO)CCC[C@H](NC(=O)c1ccc(CNCc2ncc[nH]2)cc1)C(=O)N[C@@H](C)c1cccc2ccccc12 [Compound No. 66, N-[(S)-1-(1-naphthyl)ethyl]-5-(N-isobutyl-(2-hydroxyethyl)amino)-2-(S)-[4-[N-(imidazol-2-ylmethyl)aminomethyl]benzoyl]aminopentanoylamide]	90.6	20	0/5
C[C@H](NC(=O)[C@H](CCCN1CCCCCC1)NC(=O)c1ccc(CNCc2ncc[nH]2)cc1)c1cccc2ccccc12 [Compound No. 55, N-[(S)-1-(1-naphthyl)ethyl]-5-(hexamethyleneimin-1-yl)-2-(S)-[4-[N-(imidazol-2-ylmethyl)aminomethyl]benzoyl]aminopentanoylamide]	89.3	29	0/5
Cc1cccnc1CNCCC[C@H](NC(=O)c1ccc(CNCc2ncc[nH]2)cc1)C(=O)N[C@@H](C)c1cccc2ccccc12 [Compound No. 9, N-[(S)-1-(1-naphthyl)ethyl]-5-(3-methylpyridin-2-yl)methylamino-2-(S)-[4-[N-(imidazol-2-ylmethyl)aminomethyl]benzoyl]aminopentanoylamide]		55.3	0/5
CCCN(CCC[C@H](NC(=O)c1ccc(CNCc2ncc[nH]2)cc1)C(=O)N[C@@H](C)c1cccc2ccccc12)CC(C)C [Compound No. 39, N-[(S)-1-(1-naphthyl)ethyl]-5-(N-n-propyl-isobutylamino)-2-(S)-[4-[N-(imidazol-2-ylmethyl)aminomethyl]benzoyl]aminopentanoylamide]		14.5	0/5
Cc1ccccc1CNCCC[C@H](NC(=O)c1ccc(CNCc2ncc[nH]2)cc1)C(=O)N[C@@H](C)c1cccc2ccccc12 [Compound No. 1, N-[(S)-1-(1-naphthyl)ethyl]-5-(2-methylbenzyl)amino-2-(S)-[4-[N-(imidazol-2-ylmethyl)aminomethyl]benzoyl]aminopentanoylamide]	100	58	
COc1ccccc1CNCCC[C@H](NC(=O)c1ccc(CNCc2ncc[nH]2)cc1)C(=O)N[C@@H](C)c1cccc2ccccc12 [Compound No. 2, N-[(S)-1-(1-naphthyl)ethyl]-5-(2-methoxybenzyl)amino-2-(S)-[4-[N-(imidazol-2-ylmethyl)aminomethyl]benzoyl]aminopentanoylamide]	97.6	99.6	
CCc1ccccc1CNCCC[C@H](NC(=O)c1ccc(CNCc2ncc[nH]2)cc1)C(=O)N[C@@H](C)c1cccc2ccccc12 [Compound No. 22, N-[(S)-1-(1-naphthyl)ethyl]-5-(2-ethylbenzyl)amino-2-(S)-[4-[N-(imidazol-2-ylmethyl)aminomethyl]benzoyl]aminopentanoylamide]		30	
CCCN(CCC)CCC[C@H](NC(=O)c1ccc(CNCc2ncc[nH]2)cc1)C(=O)N[C@@H](C)c1cccc2ccccc12 [Compound No. 34, N-[(S)-1-(1-naphthyl)ethyl]-5-di-n-propylamino-2-(S)-[4-[N-(imidazol-2-ylmethyl)aminomethyl]benzoyl]aminopentanoylamide]	98	15	0/5
C[C@H](NC(=O)[C@H](CCCNC1CCCCC1)NC(=O)c1ccc(CNCc2ncc[nH]2)cc1)c1cccc2ccccc12 [Compound No. 27, N-[(S)-1-(1-naphthyl)ethyl]-5-cyclohexylamino-2-(S)-[4-[N-(imidazol-2-ylmethyl)aminomethyl]benzoyl]aminopentanoylamide]	97		
C[C@H](NC(=O)[C@H](CCCNC1CCc2ccccc21)NC(=O)c1ccc(CNCc2ncc[nH]2)cc1)c1cccc2ccccc12 (stereo partly drawn) [Compound No. 29, N-[(S)-1-(1-naphthyl)ethyl]-5-(indan-1-yl)amino-2-(S)-[4-[N-(imidazol-2-ylmethyl)aminomethyl]benzoyl]aminopentanoylamide]	100		0/5
C[C@H](NC(=O)[C@H](CCCNC1CCCc2ccccc21)NC(=O)c1ccc(CNCc2ncc[nH]2)cc1)c1cccc2ccccc12 (stereo partly drawn) [Compound No. 28, N-[(S)-1-(1-naphthyl)ethyl]-5-(1,2,3,4-tetrahydronaphthalen-1-yl)amino-2-(S)-[4-[N-(imidazol-2-ylmethyl)aminomethyl]benzoyl]aminopentanoylamide]	100		
